Measurements taken from PubChem BioAssay (NCI).
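The compound was tested at five concentrations on cells cultured in 96-well plates, with a 48-hour exposure period. TGI is the concentration that stops growth completely.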

Experiments:
Assay in all cases: NCI tumour cell line growth inhibition, 48 h
786-0 renal = system: 786-0 renal
A498 renal = system: A498 renal
A549 NSCLC = system: A549 NSCLC
ACHN renal = system: ACHN renal
CAKI-1 renal = system: CAKI-1 renal
CCRF-CEM leukemia = system: CCRF-CEM leukemia
COLO 205 colon = system: COLO 205 colon
DLD-1 colon = system: DLD-1 colon
DMS 114 small cell lung = system: DMS 114 small cell lung
DMS 273 small cell lung = system: DMS 273 small cell lung
EKVX NSCLC = system: EKVX NSCLC
HCC-2998 colon = system: HCC-2998 colon
HCT-116 colon = system: HCT-116 colon
HCT-15 colon = system: HCT-15 colon
HL-60(TB) leukemia = system: HL-60(TB) leukemia
HOP-62 NSCLC = system: HOP-62 NSCLC
HOP-92 NSCLC = system: HOP-92 NSCLC
HT29 colon = system: HT29 colon
IGROV1 ovarian = system: IGROV1 ovarian
K-562 leukemia = system: K-562 leukemia
KM12 colon = system: KM12 colon
KM20L2 colon = system: KM20L2 colon
LOX IMVI melanoma = system: LOX IMVI melanoma
LXFL 529 NSCLC = system: LXFL 529 NSCLC
M14 melanoma = system: M14 melanoma
M19-MEL melanoma = system: M19-MEL melanoma
MALME-3M melanoma = system: MALME-3M melanoma
NCI-H226 lung = system: NCI-H226 lung
NCI-H23 lung = system: NCI-H23 lung
NCI-H460 lung = system: NCI-H460 lung
NCI-H522 lung = system: NCI-H522 lung
OVCAR-3 ovarian = system: OVCAR-3 ovarian
OVCAR-4 ovarian = system: OVCAR-4 ovarian
OVCAR-5 ovarian = system: OVCAR-5 ovarian
OVCAR-8 ovarian = system: OVCAR-8 ovarian
RPMI-8226 leukemia = system: RPMI-8226 leukemia
RXF 393 renal = system: RXF 393 renal
RXF-631 renal = system: RXF-631 renal
SF-268 CNS = system: SF-268 CNS
SF-295 CNS = system: SF-295 CNS
SF-539 CNS = system: SF-539 CNS
SK-MEL-28 melanoma = system: SK-MEL-28 melanoma
SK-MEL-5 melanoma = system: SK-MEL-5 melanoma
SK-OV-3 ovarian = system: SK-OV-3 ovarian
SN12C renal = system: SN12C renal
SNB-19 CNS = system: SNB-19 CNS
SNB-75 CNS = system: SNB-75 CNS
SNB-78 CNS = system: SNB-78 CNS
SW-620 colon = system: SW-620 colon
TK-10 renal = system: TK-10 renal
U251 CNS = system: U251 CNS
UACC-257 melanoma = system: UACC-257 melanoma
UACC-62 melanoma = system: UACC-62 melanoma
UO-31 renal = system: UO-31 renal
XF 498 CNS = system: XF 498 CNS
BT-549 breast = system: BT-549 breast
DU-145 prostate = system: DU-145 prostate
HS 578T breast = system: HS 578T breast
MCF7 breast = system: MCF7 breast
MDA-MB-231 breast = system: MDA-MB-231 breast
MDA-MB-435 = system: MDA-MB-435
MDA-N = system: MDA-N
MOLT-4 leukemia = system: MOLT-4 leukemia
NCI/ADR-RES ovarian = system: NCI/ADR-RES ovarian
PC-3 prostate = system: PC-3 prostate
SK-MEL-2 melanoma = system: SK-MEL-2 melanoma
SR leukemia = system: SR leukemia
T-47D breast = system: T-47D breast

Measured: TGI

O=C(c1ccccc1)c1c(C(=O)c2ccccc2)c(-c2ccccc2)c2c(-c3ccccc3)sc(-c3ccccc3)c2c1-c1ccccc1
not listed: BT-549 breast | DU-145 prostate | HS 578T breast | MCF7 breast | MDA-MB-231 breast | MDA-MB-435 | MDA-N | MOLT-4 leukemia | NCI/ADR-RES ovarian | PC-3 prostate | SK-MEL-2 melanoma | SR leukemia | T-47D breast
> 100 µM: all other assays above

C[C@]12CCC(=O)C(O)=C1CC[C@@H]1[C@@H]2CC[C@]2(C)C(=O)CC[C@@H]12
not listed: DMS 273 small cell lung | M19-MEL melanoma
> 100 µM: all other assays above

CCOC(=O)C(=O)Nc1c(N(CC)CC)n2ccccc2nc1=O
not listed: HCC-2998 colon | HL-60(TB) leukemia | LOX IMVI melanoma | OVCAR-4 ovarian | RXF 393 renal | SF-295 CNS | SK-MEL-28 melanoma | TK-10 renal | UACC-257 melanoma | BT-549 breast | DU-145 prostate | HS 578T breast | MCF7 breast | MDA-MB-231 breast | MDA-MB-435 | MDA-N | NCI/ADR-RES ovarian | PC-3 prostate | T-47D breast
> 100 µM: all other assays above
